Assay results as given in US12234223B2, “Phthalazinone compound, and preparation method therefor and medical use thereof” (SHANGHAI JEMINCARE PHARMACEUTICALS CO., LTD, priority 2020, dated 2025).

Tests used:
Androgen receptor = biological target: T1, Androgen receptor (Homo sapiens, UniProt P10275); experiment: Androgen receptor In-Cell-Western assay (AR degradation in VCaP cells); assay type: cell-based; conditions: 24 hours treatment; for DC50: concentration for half the maximum degradation degree of AR in VCaP cells; for Dmax: maximum degradation degree of AR in VCaP cells
T1 construct: Dmax: a maximum degradation degree of AR in VCaP cells; endogenous in cells; host or cells: VCaP cells
T1 sequence (P10275 1-920): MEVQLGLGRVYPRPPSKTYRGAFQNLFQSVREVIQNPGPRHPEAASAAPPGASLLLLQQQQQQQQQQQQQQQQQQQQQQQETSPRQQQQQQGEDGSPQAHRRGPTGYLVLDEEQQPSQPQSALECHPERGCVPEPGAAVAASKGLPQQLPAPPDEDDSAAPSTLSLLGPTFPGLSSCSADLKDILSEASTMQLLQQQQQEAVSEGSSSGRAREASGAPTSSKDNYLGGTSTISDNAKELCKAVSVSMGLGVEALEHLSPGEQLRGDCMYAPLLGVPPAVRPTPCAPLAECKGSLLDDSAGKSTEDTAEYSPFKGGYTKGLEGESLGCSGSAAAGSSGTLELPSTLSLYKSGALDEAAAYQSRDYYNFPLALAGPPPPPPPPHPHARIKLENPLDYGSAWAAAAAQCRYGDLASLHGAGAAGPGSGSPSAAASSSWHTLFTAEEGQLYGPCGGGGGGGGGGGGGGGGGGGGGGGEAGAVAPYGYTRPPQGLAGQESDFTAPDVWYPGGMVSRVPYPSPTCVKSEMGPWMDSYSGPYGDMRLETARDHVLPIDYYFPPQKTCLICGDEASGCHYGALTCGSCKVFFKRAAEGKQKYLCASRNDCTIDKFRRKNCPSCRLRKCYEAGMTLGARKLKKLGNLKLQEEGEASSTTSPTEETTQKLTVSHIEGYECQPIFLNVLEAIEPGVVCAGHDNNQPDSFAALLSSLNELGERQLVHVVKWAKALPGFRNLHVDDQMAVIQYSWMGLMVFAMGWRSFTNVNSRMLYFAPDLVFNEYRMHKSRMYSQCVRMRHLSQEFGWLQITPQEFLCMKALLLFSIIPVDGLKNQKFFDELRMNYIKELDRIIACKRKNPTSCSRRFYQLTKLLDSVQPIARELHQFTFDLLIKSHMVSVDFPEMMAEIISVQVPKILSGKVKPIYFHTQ
Protocol: This assay evaluated compound performance in VCap cells. An intracellular androgen receptor was assayed by In-Cell-Western according to the assay procedure described below.
In a 96-well cell culture plate (Corning 3599) pretreated by poly-D-Lysin, Vcap cells were seeded to a Vcap cell assay medium [phenol red containing DMEM (Gibco Cat. No.: 11995065); fetal bovine serum FBS (Gibco Cat. No.: 10099141C)] at a volume of 100 μL/well and a cell density of 50,000 cells/well. Cells were cultured for at least two days. • 1. First, cells were treated with a compound. The compound was subjected to a gradient dilution by using DMSO and a cell culture medium, so that DMSO contained in the cell culture plate was diluted to 0.5%: a polypropylene plate was used according to the following protocol: • (1) (i) A 200× stock solution plate was prepared in DMSO; (ii) a 10 mM stock solution was diluted at 1:4 (10 μL stock solution+40 μL DMSO=2000 uM) with DMSO to enter row 2; (iii) a 1:4 (10 μL protac+40 μL DMSO) gradient dilution was performed from row 2 to row 9, row 1 was reserved for a 2000 uM reference compound and row 10 was reserved for DMSO. (iv) There were 8 concentrations (the final concentrations on the 200× plate was 2000 uM, 400 uM, 80 uM, etc.) in total. (2) (i) A 3× stock solution was prepared in the medium; (ii) 3 μL of the 200× stock solution was transferred to 197 μL of the medium (by a 12-channel pipette, from row 1 to row 10), i.e. a 3× stock solution plate. (iii) Uniform mixing was performed for the stock solution plate. (3) (i) The medium of Vcap cells was replaced with a fresh medium, with the medium volume of 100 μL. (ii) The uniformly-mixed 3× stock solution was transferred to the cell culture plate (by the 12-channel pipette, 50 μL of the stock solution was transferred from row 1 to row 10). (iii) The cells were cultured for 24 hours. • 2. The expression level of the intracellular androgen receptor after compound treatment was detected, and assay was performed according to the following method. • (1) (i) An equal volume of 8% paraformaldehyde was added to the cell culture plate for cell fixation. A fixative solution in the cell plate was discarded, and the cell plate was washed three times with PBS. (ii) A Triton solution was prepared (the stock solution was diluted at 1:1000). The solution in the cell plate was discarded, and a volume of 200 μL of a Triton diluent was added to each well. (iii) A 2× blocking solution was prepared (a 10× blocking stock solution was diluted at 1:4). The solution in the cell plate was discarded, and a volume of 100 μL of the 2× blocking solution was added to each well. (iv) A primary antibody solution (Androgen receptor Rabbit mAb, Cell Signaling Technology Cat. No.: 5153; 1:1000 dilution) was prepared. The solution in the cell plate was discarded, a volume of 100 μL of a primary antibody diluent was added to each well, and incubation was performed at 4 degrees overnight. (v) The primary antibody solution was discarded, and the cell plate was washed with 1× Wash buffer (Wash buffer in the present application means a washing buffer solution). (vi) A secondary antibody solution (Goat anti Rabbit IgG (H+L) Secondary Antibody, HRP, Thermo Cat. No.: 31460; 1:5000 dilution) was prepared, and a volume of 100 μL of a secondary antibody diluent was added to each well for incubation. (vii) The secondary antibody solution in the cell plate was discarded, and the cell plate was washed with 1× Wash buffer. (viii) A TMB chromogenic solution (BD Cat. No.: 550534) was prepared, and a volume of 100 μL of the chromogenic solution was added to each well. (ix) A volume of 50 μL of a stop solution (BD Cat. No.: 550534) was added to each well. (x) Absorption values at OD 450 nm and 570 nm were read by EnVision. (2) (i) Normalized analysis was performed for the number of cells in each well. The solution in the cell plate was discarded, and the cell plate was washed three times with wash buffer. […]

VCaP cells = experiment: Inhibitory effect on VCaP cell proliferation (Cell Titer Glo); assay type: cell-based; conditions: Homo sapiens, 144 h; for IC50: VCaP cells, 5% FBS and 0.1 nM R1881, 6 days; for Emax: maximum degree of VCaP cell proliferation inhibition, 6 days
Protocol: A tumor cell line Vcap (ATCC Cat. No. CRL-2876) was respectively cultured with DMEM (Gibco Cat. No. 11965-092) medium containing 10% FBS (Gibco Cat. No. 10099-141C). During testing, Vcap cells were replaced with a DMEM culture fluid containing 5% FBS and 0.1 nM R1881 (Sigma Cat. No. R0908). The assay method was as follows:
Vcap cells were seeded to a 384-well plate (Perkin Elmer Cat. No. 6007460) at a cell density of 1200 cells/well and a volume of 20 μL/well; after the cells were incubated overnight in a carbon dioxide incubator (Thermo), the prepared compound solutions with different concentrations were added at a volume of 5 μL/well; meanwhile, a corresponding solvent was provided as a control; after the cells were continuously incubated in the incubator for 6 days, the cell plate and the contents thereof were equilibrated to room temperature; 25 μL of a Cell Titer Glor (Promega Cat. No. G7573) reagent was added to each well; after vibration and uniform mixing, incubation in the dark was performed for 10-30 minutes, and a signal value was detected with Envision microplate reader (PerkinElmer).
A percentage inhibition rate of compound-treated wells was calculated through solvent control wells on the plate, GraphPad prism was used to fit the percentage inhibition rate data corresponding to different concentrations, and IC50 value was calculated by a 4-parameter nonlinear logistic formula.
Emax: a maximum degree of VCaP cell proliferation inhibition. IC50: a compound concentration required to achieve half the maximum degree of VCaP cell proliferation inhibition.

DC50 (Androgen receptor) [nM] | Dmax (Androgen receptor) [%] | IC50 (VCaP cells) [nM] | SMILES | Emax (VCaP cells) [%]
5.2 | 145 | – | CC1(C)[C@H](NC(=O)c2ccc(N3CCC(CN4CCN(c5ccc6c(=O)n(C7CCC(=O)NC7=O)nc(C(F)(F)F)c6c5)CC4)CC3)cc2)C(C)(C)[C@H]1Oc1ccc(C#N)c(Cl)c1 (some centres unmarked) [Compound 32] | –
8.9 | 75 | – | CC1(C)C(NC(=O)c2ccc(N3CCC(CN4CCN(c5ccc6c(=O)n(C7CCC(=O)NC7=O)ncc6c5)CC4)CC3)nn2)C(C)(C)C1Oc1ccc(C#N)c(Cl)c1 (centres unmarked) [Compound 8] | –
– | – | 42 | CC1(C)[C@H](NC(=O)c2ccc(N3CC(CN4CCN(c5ccc6c(=O)n(C7CCC(=O)NC7=O)ncc6c5)CC4)C3)cc2)C(C)(C)[C@H]1Oc1ccc(C#N)c(Cl)c1 (some centres unmarked) [Compound 20] | 60
10 | 116 | 27 | CC1(C)[C@H](NC(=O)c2cnc(N3CCCC(CN4CCN(c5ccc6c(=O)n(C7CCC(=O)NC7=O)ncc6c5)CC4)CC3)nc2)C(C)(C)[C@H]1Oc1ccc(C#N)c(Cl)c1 (some centres unmarked) [Compound 25] | 62
5.3 | 114 | 11 | CC1(C)[C@H](NC(=O)c2cnc(N3CCC(CN4CCN(c5ccc6c(=O)n(C7CCC(=O)NC7=O)ncc6c5)CC4)CC3)nc2)C(C)(C)[C@H]1Oc1ccc(C#N)c(Cl)c1 (some centres unmarked) [Compound 2] | 60
6.9 | 98 | 20 | CC1(C)[C@H](NC(=O)c2cnc(N3CCC(CCN4CCN(c5ccc6c(=O)n(C7CCC(=O)NC7=O)ncc6c5)CC4)C3)nc2)C(C)(C)[C@H]1Oc1ccc(C#N)c(Cl)c1 (some centres unmarked) [Compound 23] | 56
16 | 84 | – | N#Cc1ccc(O[C@H]2CC[C@H](NC(=O)c3ccc(N4CC(CN5CCN(c6ccc7c(=O)n(C8CCC(=O)NC8=O)ncc7c6)CC5)C4)cc3)CC2)cc1Cl (some centres unmarked) [Compound 15] | –
6.8 | 106 | 18 | CC1(C)[C@H](NC(=O)c2cnc(N3CCC(CCN4CCN(c5ccc6c(=O)n(C7CCC(=O)NC7=O)ncc6c5)CC4)CC3)nc2)C(C)(C)[C@H]1Oc1ccc(C#N)c(Cl)c1 (some centres unmarked) [Compound 24] | 53
6.8 | 98 | 33 | CC1(C)[C@H](NC(=O)c2ccc(N3CCC(CN4CCN(c5ccc6c(=O)n(C7CCC(=O)NC7=O)ncc6c5)CC4)CC3)nc2)C(C)(C)[C@H]1Oc1ccc(C#N)c(Cl)c1 (some centres unmarked) [Compound 4] | 69

More lines, now with the values behind:

SMILES | DC50 (Androgen receptor) [nM] | Dmax (Androgen receptor) [%] | IC50 (VCaP cells) [nM] | Emax (VCaP cells) [%]
N#Cc1ccc(O[C@H]2CC[C@H](NC(=O)c3ccc(N4CCC(CN5CCN(c6ccc7c(=O)n(C8CCC(=O)NC8=O)ncc7c6)CC5)CC4)cc3)CC2)cc1Cl (some centres unmarked) [Compound 13] | 9.6 | 94 | – | –
CC1(C)[C@H](NC(=O)c2ccc(N3CCC(CN4CC5CC4CN5c4ccc5c(=O)n(C6CCC(=O)NC6=O)ncc5c4)CC3)cc2)C(C)(C)[C@H]1Oc1ccc(C#N)c(Cl)c1 (some centres unmarked) [Compound 17] | 6.9 | 88 | – | –
CC1(C)[C@H](NC(=O)c2cnc(N3CCC(CN4CCN(c5ccc6c(=O)n(C7CCC(=O)NC7=O)ncc6c5)CC4)CC3)cn2)C(C)(C)[C@H]1Oc1ccc(C#N)c(Cl)c1 (some centres unmarked) [Compound 10] | 35 | 87 | – | –
Cc1cc(O[C@H]2C(C)(C)[C@H](NC(=O)c3ccc(N4CCC(CN5CCN(c6ccc7c(=O)n(C8CCC(=O)NC8=O)ncc7c6)CC5)CC4)cc3)C2(C)C)ccc1C#N (some centres unmarked) [Compound 7] | 15 | 92 | – | –
CC1(C)[C@H](NC(=O)c2cnc(N3CCC(CN4CCN(c5ccc6c(=O)n(C7CCC(=O)NC7=O)ncc6c5)CC4)CC3)c(F)c2)C(C)(C)[C@H]1Oc1ccc(C#N)c(Cl)c1 (some centres unmarked) [Compound 26] | 32 | 109 | 45 | 60
CC1(C)[C@H](NC(=O)c2ccc(N3CCC(CN4CCN(c5ccc6c(=O)n(C7CCC(=O)NC7=O)ncc6c5)CC4)C3)cc2)C(C)(C)[C@H]1Oc1ccc(C#N)c(Cl)c1 (some centres unmarked) [Compound 16] | 5.7 | 92 | – | –
CC1(C)[C@H](NC(=O)c2ccc(N3CCC(CN4CCN(c5ccc6c(=O)n(C7CCC(=O)NC7=O)ncc6c5)CC4)CC3)cc2)C(C)(C)[C@H]1Oc1ccc(C#N)c(C(F)(F)F)c1 (some centres unmarked) [Compound 3] | 12 | 104 | – | –
CC1(C)[C@H](NC(=O)c2ccc(N3CCC(CN4CCN(c5ccc6cnn(C7CCC(=O)NC7=O)c(=O)c6c5)CC4)CC3)cc2)C(C)(C)[C@H]1Oc1ccc(C#N)c(Cl)c1 (some centres unmarked) [Compound 11] | 38 | 80 | – | –
CC1(C)[C@H](NC(=O)c2ccc(N3CCC(CN4CCN(c5ccc6c(=O)n(C7CCC(=O)NC7=O)ncc6c5)CC4)CC3)c(F)c2)C(C)(C)[C@H]1Oc1ccc(C#N)c(Cl)c1 (some centres unmarked) [Compound 5] | 8.4 | 105 | 37 | 62
